The values below come from ChEMBL document CHEMBL5126496, “A novel compound active against SARS-CoV-2 targeting uridylate-specific endoribonuclease (NendoU/NSP15): in silico and in vitro investigations” (RSC Med Chem, 2021).

Data set [1] relates to SARS-CoV-2. The experiment in a line: Antiviral activity against SARS-CoV-2 MT020880 infected in African green monkey Vero cells assessed as inhibition of viral entry preincubated for 1 hr at 10 uM. The class given is functional.
In data set [2] the test system is SARS-CoV-2. The experiment in a line: Antiviral activity against SARS-CoV-2 MT020880 infected in African green monkey Vero cells assessed as inhibition of viral entry preincubated for 1 hr. The class given is functional, organism-based, Severe acute respiratory syndrome coronavirus 2.
Data set [3] deals with SARS-CoV-2. The experiment in a line: Antiviral activity against SARS-CoV-2 MT020880 infected in African green monkey Vero cells measured after 48 hrs by spread assay. Type of data set: functional, organism-based, Severe acute respiratory syndrome coronavirus 2.
For data set [4], the system named is Vero. The experiment in a line: Cytotoxicity against African green monkey Vero cells at 50 uM. The class given is toxicity, cell-based. Conditions: chlorocebus sabaeus.
[5] abbreviates: Severe acute respiratory syndrome coronavirus 2, MT020880, Vero.

Consider IVERMECTIN [listing 1 of 2 here], for which the inhibition in data set [1] (Severe acute respiratory syndrome coronavirus 2) was 90%.

As to `CC(C)(C)c1ccc(CN2CCN(C[C@H](O)[C@@H](N)Cc3ccccc3)CC2)cc1`, the half-maximal inhibitory concentration (IC50) in data set [2] (setting [5]) was 7.28 µM; in data set [3] (Severe acute respiratory syndrome coronavirus 2, MT020880, Vero, 48 h), 8.46 µM. Moreover, the Activity entry in data set [4] is on record as “Non-Toxic”. Moreover, the inhibition at 10 µM in data set [1] (setting [5]) stood at 90%.

IVERMECTIN [listing 2 of 2 here]: the IC50 in data set [2] (vero) amounted to 4.97 µM; in data set [3] (vero), 5.53 µM. Moreover, in data set [4], the Activity entry is on record as “Toxic”.

As a reminder, the inhibition is the percentage by which the read-out fell short of the control. What is called IC50 is the concentration at which inhibition is half-maximal.
